The values below come from patent US12577217B2, “15-PGDH inhibitor” (KYORIN Pharmaceutical Co., Ltd., priority 2019, dated 2026).

This experiment addresses T1, recombinant human 15-PGDH (Homo sapiens, UniProt P15428).
T1 construct: purchased R&D Systems
T1 sequence (P15428 1-266): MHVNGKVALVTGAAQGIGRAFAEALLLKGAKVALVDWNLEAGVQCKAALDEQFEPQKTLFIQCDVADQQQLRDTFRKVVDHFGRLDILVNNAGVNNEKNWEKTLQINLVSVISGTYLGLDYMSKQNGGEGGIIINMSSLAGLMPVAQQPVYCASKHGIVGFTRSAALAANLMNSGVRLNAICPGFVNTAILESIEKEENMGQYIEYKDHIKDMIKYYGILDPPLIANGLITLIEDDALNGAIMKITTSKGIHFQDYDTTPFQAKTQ
Kind of experiment: 15-PGDH enzyme inhibition test. It is filed as biochemical. To be noted: 4 nM recombinant human 15-PGDH, 30 μM PGE2, 1 mM NAD+, 60 minutes after starting the reaction; read-out: IC50 Value. How it is done: 15-PGDH Enzyme Inhibition Test
A test compound and 4 nM recombinant human 15-PGDH (R&D Systems) were added, in 50 mM Tris-HCl (pH 8.0) containing 0.01% TWEEN 20 (Sigma) and 0.01% bovine gamma globulin (Sigma), to a 384-well Flat Bottom Black plate (Corning, 3820), and the resultant was allowed to stand still at room temperature for 12 minutes, and 30 μM PGE2 (Cayman Chemical) and 1 mM NAD+ (Sigma) were added thereto to start the reaction. 60 minutes after starting the reaction, measurement was performed using Synergy 2 (BioTeck) at an excitation wavelength of 340 nm and a fluorescence wavelength of 440 nm. Assuming that a fluorescence signal obtained with an assay buffer added instead of the test compound and NAD+ was 100% and that a signal obtained with NAD+ added was 0%, a concentration corresponding to 50% inhibition plotted on a concentration-reaction curve of the test compound was defined as an IC50 value. Incidentally, in the following tables, an IC50 value smaller than 10 nM was shown as +++, an IC50 value equal to or larger than 10 nM and smaller than 100 nM was shown as ++, and an IC50 value equal to or larger than 100 nM was shown as +.
The term IC50 denotes the concentration that gives 50% inhibition. In the case of `NC(=O)c1ccc(N2CCOc3cc(C(=O)N4CCCCC4)ccc32)cn1` [Example 6-3], the IC50 is less than 10 nM.

Consider `O=C(c1cnc2c(c1)CCCN2c1cc2c(cn1)C(=O)N(C1COC1)C2)N1CCCCC1` [Example 1-74], for which the concentration for half-maximal inhibition (IC50) fell in the range of 10 to 100 nM.

In the case of `Cn1cnc2cc(N3CCCc4cc(C(=O)N5CCC(F)(F)CC5)cnc43)cnc2c1=O` [Example 1-191], the IC50 was less than 10 nM.

Take `Cn1cnc2cc(N3CCOc4cc(C(=O)N5CCC(F)(F)CC5)ccc43)ccc2c1=O` [Example 1-153]: the concentration for half-maximal inhibition (IC50) was less than 10 nM.

In the case of `O=C(O)Cc1ccc(N2CCOc3cc(C(=O)N4CCCCC4)ccc32)cc1` [Example 2-32], the half-maximal inhibitory concentration (IC50) is less than 10 nM.

Turning to `COC(=O)c1ccc2cc(N3CCOc4cc(C(=O)N5CCCCC5)cnc43)nn2c1` [Example 11-6], the IC50 is less than 10 nM.

Regarding `COc1noc2cc(N3CCOc4cc(C(=O)N5CCCCC5)cnc43)ccc12` [Example 1-20], the half-inhibitory concentration (IC50) was less than 10 nM.

Consider `CNC(=O)c1ccc(N2CCOc3cc(C(=O)N4CCCCC4)cnc32)cc1C` [Example 6-12], for which the IC50 was greater than 100 nM.

As for `COC(=O)c1ccccc1N1CCOc2cc(C(=O)N3CCCCC3)cnc21` [Example 1-263], the IC50 was greater than 100 nM.

As for `CN1Cc2cc(N3CCOc4cc(C(=O)N5CCC(F)(F)CC5)cnc43)ccc2C1=O` [Example 1-127], the IC50 was less than 10 nM.

As to `CN(C)C(=O)c1ccc(N2CCCc3cc(C(=O)N4CCCCC4)cnc32)cc1` [Example 6-15], the IC50 fell in the range of 10 to 100 nM.

In the case of `CN1Cc2cc(N3CCOc4cc(C(=O)C5CCC(F)(F)CC5)cnc43)ccc2C1=O` [Example 1-133], the half-maximal inhibitory concentration (IC50) was less than 10 nM.

On to `Cn1nc2cc(N3CCSc4cc(C(=O)N5CCCCC5)ccc43)ccn2c1=O` [Example 1-97], for which the IC50 is less than 10 nM.

On to `O=C(c1cnc2c(c1)OCCN2c1cccc(F)c1)N1CCCCC1` [Example 1-237], for which the IC50 is less than 10 nM.

As for `CCn1nc2cc(N3CCCc4cc(C(=O)N5CCCCC5)cnc43)ccn2c1=O` [Example 1-54], the half-maximal inhibitory concentration (IC50) was less than 10 nM.

In the case of `O=C(c1cnc2c(c1)OCCN2c1ccccc1F)N1CCCCC1` [Example 1-238], the concentration for half-maximal inhibition (IC50) was greater than 100 nM.

`CCn1oc2cc(N3CCOc4cc(C(=O)N5CCC(F)(F)CC5)cnc43)ccc2c1=O` [Example 8-214]: the concentration for half-maximal inhibition (IC50) is less than 10 nM.

`CCn1nc2cc(N3CCCc4cc(C(=O)N5CCC[C@@H](C(F)F)C5)cnc43)ccn2c1=O` [Example 8-167]: the half-maximal inhibitory concentration (IC50) is less than 10 nM.

As for `Cn1nc2cc(N3CCOc4cc(C(=O)N5CC=CCC5)cnc43)ccn2c1=O` [Example 8-229], the IC50 is less than 10 nM.

Consider `CN1Cc2cc(N3CCOc4cc(S(=O)(=O)C5CCCCC5)cnc43)ccc2C1=O` [Example 7-10], for which the IC50 fell in the range of 10 to 100 nM.

Regarding `O=C(c1cnc2c(c1)CCCN2c1ccn2c(=O)n(C3CC3)nc2c1)N1CCCCC1` [Example 26-1, 2-Cyclopropyl-7-(6-(piperidine-1-carbonyl)-3,4-dihydro-1,8-naphthylidin-1(2H)-yl)-[1,2,4]triazolo[4,3-a]pyridin-3(2H)-one], the half-inhibitory concentration (IC50) is less than 10 nM.

For the molecule `O=C(c1cnc2c(c1)CCCN2c1cc2c(cn1)C(=O)N(C1COC1)C2)N1CCC(F)(F)CC1` [Example 1-183], the IC50 was in the range of 10 to 100 nM.

In the case of `Cn1nc2cc(N3CCCc4cc(C(=O)N5CC=CCC5)cnc43)ccn2c1=O` [Example 8-129], the IC50 is less than 10 nM.

For `O=C(c1cnc2c(c1)CCCN2c1ccc2c(c1)CN(C1COC1)C2=O)N1CCC(F)(F)CC1` [Example 1-178], the IC50 was less than 10 nM.

Regarding `CCN1Cc2cc(N3CCCc4cc(C(=O)N5CCC5)cnc43)ccc2C1=O` [Example 8-68], the IC50 was less than 10 nM.

For the molecule `CCOc1noc2cc(N3CCOc4cc(C(=O)N5CCC(F)(F)CC5)cnc43)ccc12` [Example 8-216], the concentration for half-maximal inhibition (IC50) was less than 10 nM.

With `O=C(O)c1ccc(N2CCCS(=O)(=O)c3cc(C(=O)N4CCCCC4)ccc32)cc1` [Example 2-20], the 50% inhibitory concentration (IC50) is greater than 100 nM.

For the molecule `COc1cc2c(cc1C(=O)N1CCCCC1)OCCN2c1ccc(C(=O)O)cc1` [Example 2-1, 4-(6-Methoxy-7-(piperidine-1-carbonyl)-2,3-dihydro-4H-benzo[b] [1,4]oxazin-4-yl)benzoic Acid], the IC50 is 10 to 100 nM.

Consider `C[C@H]1CCCCN1C(=O)c1cnc2c(c1)OCCN2c1ccn2c(=O)n(C)nc2c1` [Example 8-28], for which the IC50 is less than 10 nM.

For `O=C(c1cnc2c(c1)OCCN2c1ccn2cnnc2c1)N1CCCCC1` [Example 1-105], the IC50 was less than 10 nM.

As to `O=C(O)c1ccc(N2CCCOc3cc(C(=O)N4CCCCC4)ccc32)cc1` [Example 2-5], the IC50 was less than 10 nM.

For `O=C(O)C1CCC(N2CCOc3cc(C(=O)N4CCCCC4)ccc32)CC1` (stereo not drawn) [Example 4-14], the half-maximal inhibitory concentration (IC50) was less than 10 nM.

As to `CCN1Cc2cc(N3CCCc4cc(C(=O)N5CCC(C)CC5)cnc43)ccc2C1=O` [Example 8-80], the 50% inhibitory concentration (IC50) was less than 10 nM.

Regarding `O=C(O)c1ccccc1N1CCCc2cc(C(=O)N3CCCCC3)cnc21` [Example 1-212], the concentration for half-maximal inhibition (IC50) is 10 to 100 nM.

In the case of `COCCn1nc2cc(N3CCOc4cc(C(=O)N5CCCCC5)cnc43)ccn2c1=O` [Example 1-28], the IC50 was less than 10 nM.

Turning to `Cn1nc2cc(N3CCOc4cc(C(=O)N5CCC(C#N)CC5)cnc43)ccn2c1=O` [Example 8-183], the IC50 is 10 to 100 nM.

In the case of `Cn1nc2cc(N3CCOc4cc(C(=O)N5CCC(C)(C)C5)cnc43)ccn2c1=O` [Example 8-100], the half-maximal inhibitory concentration (IC50) was less than 10 nM.

`COc1c(C(=O)N2CCCCC2)ccc2c1OCCN2c1ccc(C(=O)O)cc1` [Example 2-2]: the half-inhibitory concentration (IC50) is less than 10 nM.

In the case of `CCN(CC(C)O)C(=O)c1cnc2c(c1)OCCN2c1ccn2c(=O)n(C)nc2c1` (stereo not drawn) [Example 8-179], the IC50 fell in the range of 10 to 100 nM.

As for `Cn1nc2cc(N3CCCc4cc(C(=O)N5CCCC(C)(F)C5)cnc43)ccn2c1=O` (stereo not drawn) [Example 8-141], the IC50 was less than 10 nM.

Consider `CCn1nc2cc(N3CCCc4cc(C(=O)N5CCCCCC5)cnc43)ccn2c1=O` [Example 8-149], for which the IC50 was less than 10 nM.

`CCn1nc2cc(N3CCCc4cc(C(=O)N5CCCCCCC5)cnc43)ccn2c1=O` [Example 8-150]: the IC50 is less than 10 nM.

On to `CCOCCn1nc2cc(N3CCOc4cc(C(=O)N5CCC(F)(F)CC5)cnc43)ccn2c1=O` [Example 1-48], for which the IC50 was less than 10 nM.

Take `CCOCn1nc2cc(N3CCOc4cc(C(=O)N5CCC(F)(F)CC5)cnc43)ccn2c1=O` [Example 1-44]: the IC50 is less than 10 nM.

For `O=C(c1cnc2c(c1)OCCN2c1ccc2c(=O)[nH]ncc2c1)N1CCCCC1` [Example 14-8], the half-inhibitory concentration (IC50) was less than 10 nM.

`CN(CC(C)(C)O)C(=O)c1cnc2c(c1)OCCN2c1ccn2c(=O)n(C)nc2c1` [Example 8-182]: the half-maximal inhibitory concentration (IC50) was in the range of 10 to 100 nM.

Regarding `O=C(O)c1ccc(N2CCOc3cc(C(=O)N4CCC[C@@H](F)C4)cnc32)cc1` [Example 4-7], the IC50 is less than 10 nM.

As for `Cn1nc2cc(N3CCOc4cc(C(=O)N5CCCC6CC65)cnc43)ccn2c1=O` (single isomer, unassigned) [23-1 Isomer B, 7-(7-(2-Azabicyclo[4,1,0]heptane-2-carbonyl)-2,3-dihydro-4H-pyrido[3,2-b][1,4]oxazin-4-yl)-2-methyl-[1,2,4]triazolo[4,3-a]pyridin-3(2H)-one], the IC50 is less than 10 nM.

As to `COc1cc(N2CCOc3cc(C(=O)N4CCC(F)(F)CC4)ccc32)ccc1C(=O)O` [Example 2-13], the IC50 was less than 10 nM.

For the molecule `O=C(c1cnc2c(c1)CCCN2c1ccc2c(c1)CN(C1CC1)C2=O)N1CCCCC1` [Example 1-198], the half-inhibitory concentration (IC50) is less than 10 nM.

With `Cn1nc2cc(N3CCOc4cc(C(=O)N5[C@@H]6CCC[C@H]5CC6)cnc43)ccn2c1=O` [Example 8-56], the half-inhibitory concentration (IC50) is less than 10 nM.

On to `CN1Cc2cc(N3CCCc4cc(C(=O)N5CCCCC5)cnc43)ncc2C1=O` [Example 1-56], for which the IC50 lay within 10 to 100 nM.

As to `C[C@@H]1C[C@H](C)CN(C(=O)c2cnc3c(c2)OCCN3c2ccn3c(=O)n(C)nc3c2)C1` [Example 8-41], the 50% inhibitory concentration (IC50) is less than 10 nM.

As to `CCCCN1Cc2cc(N3CCCc4cc(C(=O)N5CCCCC5)cnc43)ccc2C1=O` [Example 1-197], the IC50 was less than 10 nM.

Regarding `CN1Cc2cc(N3CCOc4cc(C(=O)N5CCCCC5)cnc43)cnc2C1=O` [Example 1-101], the IC50 was less than 10 nM.

On to `CCn1nc2cc(N3CCOc4cc(C(=O)N5CCCCC56COC6)cnc43)ccn2c1=O` [Example 8-218], for which the half-maximal inhibitory concentration (IC50) was greater than 100 nM.

As to `COCn1nc2cc(N3CCCOc4cc(C(=O)N5CCCCC5)cnc43)ccn2c1=O` [Example 1-52], the IC50 was less than 10 nM.

Take `O=C(c1ccc2c(c1)OCCN2c1ccn2c(=O)[nH]nc2c1)N1CCC(F)(F)CC1` [Example 1-148]: the IC50 is less than 10 nM.

Turning to `Cc1cc(N2CCOc3cc(C(=O)N4CCCCC4)cnc32)ccc1C(=O)O` [Example 4-16], the IC50 was less than 10 nM.

Consider `COCn1nc2cc(N3CCCc4cc(C(=O)N5CCC[C@@H](CF)C5)cnc43)ccn2c1=O` [Example 1-121], for which the IC50 was less than 10 nM.
